Structures can show the parent of a compound that is named as a salt. Where two headings read alike, the source gives them in different places.

Data set [1] in a line: In vitro drug release from Compound 188-loaded microparticles. The data set is classed as physicochemical. Particulars: 99% PLGA75125 4A and 1% PLGA5050-PEG5K, PBS with 1% Tween 20, 37 °C.
Data set [2] is described as follows: Drug loading of Compound 188-loaded microparticles (HPLC). In kind it is physicochemical. As to conditions: 99% PLGA75125 4A and 1% PLGA5050-PEG5K.
Data set [3] in a line: Drug loading of Compound 221-loaded implants (HPLC). In kind it is physicochemical. Particulars: implants (hot melt extrusion), 99% PLGA75125 4A and 1% PLGA5050-PEG5K. The procedure:
(§1) Compound 221 and biodegradable polymer excipients including PLGA and PLGA-PEG were weighed and thoroughly premixed in a sealed container. The powder blend was fed into an extruder (HAAKE Twin Screw Compounder, Thermo Fisher Scientific), which was pre-set to a temperature of 80-90 °C and a screw speed of 150 rpm. The blend was heated in the extruder and recirculated in the extruder chamber through an internal loop channel for a pre-set duration (e.g., 2-30 min). The filament was extruded at pre-set screw speed (e.g, 10-300 rpm) through a die, guided by a conveying belt and cut into desired length (3-10 mm) for further testing.
(§2) The drug loading of the implants was quantitated by HPLC.

Data set [4] can be described thus: In vitro drug release from Compound 221-loaded microparticles. Particulars: 99% PLGA75125 4A and 1% PLGA5050-PEG5K, PBS with 1% Tween 20, 37 °C.
The nature of data set [5]: In vitro drug release from Compound 221-loaded implants. Particulars: implants (hot melt extrusion), 99% PLGA75125 4A and 1% PLGA5050-PEG5K; PBS with 1% Tween 20, 37 °C. The data set is classed as physicochemical. The procedure:
as §1, §2

Data set [6] can be described thus: Drug loading of Compound 221-loaded microparticles (HPLC). Particulars: 99% PLGA75125 4A and 1% PLGA5050-PEG5K.
Data set [7] deals with photoreceptors of rd1 explants. The data set can be described thus: Photoreceptor cell death in rd1 retinal explants (TUNEL). In kind it is cell-based. As to conditions: Mus musculus. The source says:
Legend: The animals at the age of postnatal day 5 (PN5) were killed by decapitation and retinas were dissected out with retinal pigment epithelium attached as described previously (Caffe, A. R.; Ahuja, P.; Holmqvist, B.; Azadi, S.; Forsell, J.; Holmqvist, I.; Soderpalm, A. K.; van Veen, T., Mouse retina explants after long-term culture in serum free medium. J Chem Neuroanat 2001, 22 (4), 263-73). The retinas were flattened out on the membranes of commercially available 6-well culture inserts, after which 1.5 ml of a custom made culturing medium was added to each well. These explants were then kept in culture for two days without any treatment after which the test analog of the invention at the desired concentration was added at a medium change at PN7 (“7” in Figure). […]
Legend: Effects of selected analogs at given concentrations of the invention on the cell death of photoreceptors of rd1 explants. The cell death was assessed by so called TUNEL stain on fixated and sectioned material, after which the number of dying cells was counted and analyzed, and compared with that from untreated rd1 explants. In order to allow more direct comparisons between the different analogs and concentrations a ratio of treated/untreated specimens was calculated. […]

Data set [8] deals with cGMP dependent protein kinase. Particulars: cited from earlier work.
Data set [9] has as its system rd1 and rd2 photoreceptors. Particulars: in vitro; cited from earlier work.
Data set [10] has as its system rd1 and rd2 photoreceptors. Particulars: in vivo mouse retinitis pigmentosa models; cited from earlier work.

In data set [1] (target drug loading 30%), `Cc1ccc(-c2cn3c(=O)c4nc(Br)n([C@@H]5O[C@@H]6CO[P@@](=O)(S)O[C@H]6[C@H]5O)c4nc3[nH]2)cc1` [Compound 188-BEN, 8-bromo-(4-methyl-β-phenyl-1,N^2-etheno)guanosine-3′,5′-cyclic monophosphorothioate, Rp-isomer, N-benzyl-2-phenylethan-1-aminium salt] came in with a Release duration of 29 days. For the same compound, the “Compound 188 loading (w/w)” value in data set [2] (target drug loading 30%) worked out at 26%.

As for `Cc1ccc(-c2cn3c(=O)c4nc(Br)n([C@@H]5O[C@@H]6CO[P@@](=O)(S)O[C@H]6[C@H]5O)c4nc3[nH]2)cc1` [Compound 188-BEZ, 8-bromo-(4-methyl-β-phenyl-1,N^2-etheno)guanosine-3′,5′-cyclic monophosphorothioate, Rp-isomer, N-benzyl-2-(benzylamino)ethan-1-aminium salt], in [1] (target drug loading 20%, in 49 days), the “Release duration: % released in 49 days” value came out at 32% released. In addition, the “Compound 188 loading (w/w)” value in data set [2] (target drug loading 20%) was 19.6%.

For `Cc1ccc(-c2cn3c(=O)c4nc(Br)n([C@@H]5O[C@@H]6CO[P@@](=O)(S)O[C@H]6[C@H]5O)c4nc3[nH]2)cc1` [Compound 188-Ca], the “Compound 188 loading (w/w)” value in [2] (target drug loading 30%) is 3%.

`O=c1c2nc(Br)n([C@@H]3O[C@@H]4CO[P@@](=O)(S)O[C@H]4[C@H]3O)c2nc2[nH]c(-c3ccccc3)cn12` [Compound 221-BEN, 8-bromo-(β-phenyl-1,N^2-etheno)guanosine-3′,5′-cyclic monophosphorothioate, Rp-isomer, N-benzyl-2-phenylethan-1-aminium salt]: the “Compound 221 loading (w/w)” value in [3] worked out at 30.0%; in [6] (target drug loading 30%) it was 22.5%. Moreover, the values for the Release duration in [4] (target drug loading 30%) and in [5] were 43 days and 40 days, respectively.

For `O=c1c2nc(Br)n([C@@H]3O[C@@H]4CO[P@@](=O)(S)O[C@H]4[C@H]3O)c2nc2[nH]c(-c3ccccc3)cn12` [Compound 221-BEZ, 8-bromo-(β-phenyl-1,N^2-etheno)guanosine-3′,5′-cyclic monophosphorothioate, Rp-isomer which is N-benzyl-2-(benzylamino)ethan-1-aminium salt], the “Compound 221 loading (w/w)” value was 30.0% in data set [3] and 14.0% in data set [6] (target drug loading 30%). Further, the Release duration in [4] (target drug loading 30%) was found to be 35 days; in [5] it was 40 days.

On to `O=c1c2nc(Br)n([C@@H]3O[C@@H]4CO[P@@](=O)(S)O[C@H]4[C@H]3O)c2nc2[nH]c(-c3ccccc3)cn12` [Compound 221-Ca], for which the “Compound 221 loading (w/w)” value in [3] is 30.0%. The compound also registered a Release duration in data set [5] of 40 days.

Take `O=c1c2nc(Br)n([C@@H]3O[C@@H]4CO[P@@](=O)(S)O[C@H]4[C@H]3O)c2nc2[nH]c(-c3ccccc3)cn12` [Compound 221-FA]: the “Compound 221 loading (w/w)” value in data set [3] turned out to be 10.5%; in data set [6] (target drug loading 10%), 1.2%. The Release duration came out at 22 days in [4] (target drug loading 10%) and 26 days in data set [5].

For `O=c1c2nc(Br)n([C@@H]3O[C@@H]4CO[P@@](=O)(S)O[C@H]4[C@H]3O)c2nc2[nH]c(-c3ccccc3)cn12` [Compound 221-Na], the “Compound 221 loading (w/w)” value in data set [3] worked out at 17.4%. The Release duration in data set [5] was 14 days.

`O=c1c2nc(Br)n([C@@H]3O[C@@H]4CO[P@@](=O)(S)O[C@H]4[C@H]3O)c2nc2[nH]c(-c3ccccc3)cn12` [Compound 221-TEA]: the “Compound 221 loading (w/w)” value amounted to 15.75% in data set [3] and 1.8% in data set [6] (target drug loading 10%). The values for the Release duration in [4] (target drug loading 10%) and in data set [5] were 35 days and 40 days, respectively.

Regarding `O=c1c2nc(Br)n([C@@H]3O[C@@H]4CO[P@@](O)(=S)O[C@H]4[C@H]3O)c2nc2[nH]c(-c3ccccc3)cn12` [Rp-8-Br-PET-cGMPS], in data set [7] (TUNEL, untreated = 1.0, n = 8, read-out: effect ratio of treated/untreated specimens (photoreceptor cell death)), the photoreceptor cell death, % of untreated at 50 µM was approximately 78%. The inhibition at 50 µM in data set [7] (vs untreated, read-out: reduction of photoreceptor cell death) is more than 20%. Besides, the “efficacy / agonistic properties” value in data set [8] is given as “suboptimal efficacies or even partially agonistic properties”.

With `Nc1nc2c(nc(Br)n2[C@@H]2O[C@@H]3COP(O)(=S)O[C@H]3[C@H]2O)c(=O)[nH]1` (stereo partly drawn) [Rp-8-Br-cGMPS], the “protection for rd1 and rd2 photoreceptors” value in data set [9] and in [10] was “some protection” each time.

The record behind these values is US20260373186A1 (Mireca Medicines GmbH, priority 2022, published 2026).
